Series [1] in a line: Confirmatory test for hygroscopicity of crystal (automated water vapor sorption, DVS). Type of series: physicochemical. The method, then:
After completion of the drying, relative humidity was continuously changed at intervals of 5% in a range from 0% to 95% and the amount of water vapor adsorption and desorption of the sample was measured with automated water vapor sorption apparatus: DVS Advantage (Surface Measurement Systems).

Series [2] can be described thus: Solid stability test of crystal (storage, content by HPLC, appearance). Type of series: physicochemical. The arrangement: key to Change of Appearance: when there was no change in appearance, an evaluation was (−); when there was a little change observed, it was (±). As to conditions: for Survival Rate: vs standard stored at −40° C.; for Change in the appearance / Solid stability, decrease in content: all storage conditions, two or four weeks. The method, then: About 10 mg of crystal was correctly weighed in the 2-mL glass container with a stopper made of polyethylene.
After closing the glass container, it was rolled with parafilm, and stored for two or four weeks at 40° C. or 60° C. The sample stored at 40° C. is called 40° C. with airtight stopper, and the sample saved at 60 C. is called 60° C. with airtight stopper.
Also samples were reserved with the glass container opened at 40° C., relative humidity 89%, or 60° C., for two weeks or four weeks. The sample stored at 40° C. and relative humidity 89% is called 40° C. R.H.89%, and the sample stored at 60° C. is called 60° C. Opened.
Using samples with airtight stopper stored at −40° C. as a standard, the content was measured with the absolute calibration method by the HPLC method under the following conditions:
In addition, when there was no change in appearance, an evaluation was (−), and when there was a little change observed, it was (±).
Column: CAPCELL PAK C18 AQ (3 micrometer 3.0×150 mm)
Column temperature: 50° C.
UV detection wavelength: 231 nm
[A] A mixed solution containing ammonium formate (10 mmol/L) and magnesium chloride (10 mmol/L)

The mark [3] stands for this setting: 40° C. R.H. 89%, opened, 2 weeks.
[4] abbreviates: 40° C. R.H. 89%, opened, 4 weeks.
Where [5] appears, read: 40° C. airtight stopper, 4 weeks.
The mark [6] stands for this setting: 60° C. airtight stopper, 2 weeks.
Setting [7] is: 60° C. airtight stopper, 4 weeks.

The values below come from US9951082B2, “Crystal of 6,7-unsaturated-7-carbamoyl morphinan derivative and method for producing the same” (Shionogi & Co., Ltd., priority 2010, dated 2018).

Structures can show the parent of a compound that is named as a salt.

For the compound `CC(C)(NC(=O)C1=C(O)[C@@H]2Oc3c(O)ccc4c3[C@@]23CCN(CC2CC2)[C@H](C4)[C@]3(O)C1)c1nc(-c2ccccc2)no1` [p-toluenesulfonic acid salt (non-solvate)], the “Hygroscopicity (in words)” value in series [1] (0% to 95% relative humidity at 25° C.) is “hygroscopicity was little observed”. The “Amount of the maximum moisture absorption” value in series [1] (range of 0% to 95% of relative humidity at 25° C.) was “less than 1.2%”. Further, the “Change of Appearance” value is on record as “−” in series [2] (setting [3]); “−” in series [2] (setting [4]); “−” in series [2] (setting [5]); “−” in series [2] (60° C. Opened, 2 weeks); “−” in series [2] (60° C. Opened, 4 weeks); “−” in series [2] (setting [6]). Also, the “Change of Appearance” value in series [2] (setting [7]) is listed as “−”. In addition, the “Survival Rate” value was found to be 99.3% in series [2] (setting [3]); 100.5% in series [2] (setting [4]); 98.0% in series [2] (setting [5]); 100.3% in series [2] (60° C. Opened, 2 weeks); 98.8% in series [2] (60° C. Opened, 4 weeks); 99.9% in series [2] (setting [6]). Besides, the “Survival Rate” value in series [2] (setting [7]) amounted to 99.6%. Also, the “Change in the appearance” value in series [2] is listed as “no change in the appearance”. Further, the “Solid stability, decrease in content” value in series [2] is listed as “stable”.
For the compound `CC(C)(NC(=O)C1=C(O)[C@@H]2Oc3c(O)ccc4c3[C@@]23CCN(CC2CC2)[C@H](C4)[C@]3(O)C1)c1nc(-c2ccccc2)no1` [p-toluenesulfonic acid salt hydrate (form I)], the “Change of Appearance” value in series [2] (setting [3]) is on record as “−”; in series [2] (setting [4]) it was “±”; in series [2] (60° C. Opened, 2 weeks), “−”; in series [2] (60° C. Opened, 4 weeks), “±”; in series [2] (setting [6]), “−”; in series [2] (setting [7]), “±”. Besides, the “Survival Rate” value in series [2] (setting [3]) turned out to be 101.2%; in series [2] (setting [4]) it was 98.4%; in series [2] (60° C. Opened, 2 weeks), 100.5%; in series [2] (60° C. Opened, 4 weeks), 98.5%; in series [2] (setting [6]), 100.8%; in series [2] (setting [7]), 99.2%. For the same compound, the “Change in the appearance” value in series [2] is on record as “no change in the appearance”. In addition, the “Solid stability, decrease in content” value in series [2] is listed as “stable”.
On to `CC(C)(NC(=O)C1=C(O)[C@@H]2Oc3c(O)ccc4c3[C@@]23CCN(CC2CC2)[C@H](C4)[C@]3(O)C1)c1nc(-c2ccccc2)no1` [p-toluenesulfonic acid salt hydrate (form II)], for which the “Change of Appearance” value in series [2] (setting [3]) was “−”; in series [2] (setting [4]), “±”; in series [2] (60° C. Opened, 2 weeks), “−”; in series [2] (60° C. Opened, 4 weeks), “±”; in series [2] (setting [6]), “−”; in series [2] (setting [7]), “±”. Also, the “Survival Rate” value in series [2] (setting [3]) was 100.9%; in series [2] (setting [4]), 100.1%; in series [2] (60° C. Opened, 2 weeks), 100.7%; in series [2] (60° C. Opened, 4 weeks), 100.4%; in series [2] (setting [6]), 102.0%; in series [2] (setting [7]), 100.6%. Also, the “Change in the appearance” value in series [2] is reported as “no change in the appearance”. Also, the “Solid stability, decrease in content” value in series [2] is listed as “stable”.
